Measured values published in patent US20200079765A1, “SUBSTITUTED HETEROARYL PYRROLONES AND SALTS THEREOF AND USE THEREOF AS HERBICIDAL ACTIVE SUBSTANCES” (Bayer CropScience Aktiengesellschaft, priority 2016, published 2020).

How the values were obtained:
Format in all cases: in vivo
[1] = test system: Avena fatua; assay: Post-emergence herbicidal action (Experimental Part 1, A); details: rated visually after about 3 weeks
Experimental: (§1) Seeds of monocotyledonous and dicotyledonous weeds and crop plants were placed in sandy loam in plastic or wood-fiber pots, covered with soil and cultivated in a greenhouse under controlled growth conditions. 2 to 3 weeks after sowing, the test plants were treated at the one-leaf stage. The compounds of the invention, formulated in the form of wettable powders (WP) or as emulsion concentrates (EC), were then sprayed onto the green parts of the plants as aqueous suspension or emulsion with addition of 0.5% additive at a water application rate of 600 l/ha (converted). After the test plants had been kept in the greenhouse under optimum growth conditions for about 3 weeks, the activity of the preparations was rated visually in comparison to untreated controls. For example, 100% activity=the plants have died, 0% activity=like control plants. Tables A1 to A14 below show the effects of selected compounds of the general formula (I) according to Tables I.1 to I.116 on various harmful plants and an application rate corresponding to 1280 g/ha or 320 g/ha, which were obtained by the experimental procedure mentioned above.

[2] = test system: Alopecurus myosuroides; assay: as above; details: about 3 weeks after treatment, 100% = plants have died, 0% = like control plants
Experimental: as §1

[3] = test system: Amaranthus retroflexus; assay: as above; details: about 3 weeks after treatment, 100% = plants have died, 0% = like control plants
Experimental: as §1

[4] = test system: Polygonum convolvulus; assay: as above; details: rated visually after about 3 weeks
Experimental: as §1

[5] = test system: Echinochloa crus-galli; assay: as above; details: about 3 weeks after treatment, 100% = plants have died, 0% = like control plants
Experimental: as §1

[6] = test system: Ipomoea purpurea; assay: as above; details: rated visually after about 3 weeks
Experimental: as §1

[7] = test system: Setaria viridis; assay: as above; details: about 3 weeks after treatment, 100% = plants have died, 0% = like control plants
Experimental: as §1

[8] = test system: Stellaria media; assay: as above; details: rated visually after about 3 weeks
Experimental: as §1

[9] = test system: Veronica persica; assay: as above; details: application rate 1280 g/ha, about 3 weeks after treatment, 100% = plants have died, 0% = like control plants
Experimental: as §1

[10] = test system: Hordeum murinum; assay: as above; details: application rate 1280 g/ha, rated visually after about 3 weeks
Experimental: as §1

[11] = test system: Matricaria inodora; assay: as above; details: rated visually after about 3 weeks
Experimental: as §1

[12] = test system: Viola tricolor; assay: as above; details: rated visually after about 3 weeks
Experimental: as §1

[13] = test system: Abutilon theophrasti; assay: as above; details: about 3 weeks after treatment, 100% = plants have died, 0% = like control plants
Experimental: as §1

[14] = test system: Avena fatua; assay: Pre-emergence herbicidal action (Experimental Part 1, B); details: scored visually after about 3 weeks
Procedure, shortened: (§2)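 Application rates were 1280 g/ha or 320 g/ha, sprayed on the covering soil of sown pots as aqueous suspension or emulsion (600 l/ha, 0.5% additive). Plants grew under good greenhouse conditions, and effects were rated visually after roughly 3 weeks relative to untreated pots.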

[15] = test system: Alopecurus myosuroides; assay: as above; details: scored visually after about 3 weeks
Procedure, shortened: as §2

[16] = test system: Amaranthus retroflexus; assay: as above; details: scored visually after about 3 weeks
Procedure, shortened: as §2

[17] = test system: Polygonum convolvulus; assay: as above; details: scored visually after about 3 weeks
Procedure, shortened: as §2

[18] = test system: Echinochloa crus-galli; assay: as above; details: application rate 1280 g/ha, scored visually after about 3 weeks
Procedure, shortened: as §2

[19] = test system: Ipomoea purpurea; assay: as above; details: application rate 1280 g/ha, scored visually after about 3 weeks
Procedure, shortened: as §2

[20] = test system: Setaria viridis; assay: as above; details: scored visually after about 3 weeks
Procedure, shortened: as §2

[21] = test system: Stellaria media; assay: as above; details: scored visually after about 3 weeks
Procedure, shortened: as §2

[22] = test system: Lolium rigidum; assay: as above; details: application rate 1280 g/ha, scored visually after about 3 weeks
Procedure, shortened: as §2

[23] = test system: Veronica persica; assay: as above; details: application rate 1280 g/ha, scored visually after about 3 weeks
Procedure, shortened: as §2

[24] = test system: Hordeum murinum; assay: as above; details: scored visually after about 3 weeks
Procedure, shortened: as §2

[25] = test system: Matricaria inodora; assay: as above; details: scored visually after about 3 weeks
Procedure, shortened: as §2

[26] = test system: Viola tricolor; assay: as above; details: scored visually after about 3 weeks
Procedure, shortened: as §2

[27] = test system: Abutilon theophrasti; assay: as above; details: scored visually after about 3 weeks
Procedure, shortened: as §2

In the case of `CC1=CC(=O)N(c2cc(C(C)(C)C)on2)C1O` (stereo not drawn) [I.1-162, 5-Hydroxy-4-methyl-1-(5-tert-butyl-1,2-isoxazol-3-yl)-1,5-dihydro-2H-pyrrol-2-one], the “Avena fatua, herbicidal activity” value ([1]; application rate 320 g/ha) is reported as 90%, the “Avena fatua, herbicidal activity” value ([1]; application rate 1280 g/ha) is reported as 100% and the “herbicidal activity on Alopecurus myosuroides (visual rating vs untreated controls)” value ([2]; application rate 320 g/ha) is reported as 90%. The “herbicidal activity on Alopecurus myosuroides (visual rating vs untreated controls)” value ([2]; application rate 1280 g/ha) was 100%, the “herbicidal activity on Amaranthus retroflexus (visual rating vs untreated controls)” value ([3]; application rate 320 g/ha) was 100% and the “herbicidal activity on Amaranthus retroflexus (visual rating vs untreated controls)” value ([3]; application rate 1280 g/ha) was 100%. For the same molecule, the “Polygonum convolvulus, herbicidal activity” value (“Polygonum convolvulus” for short) ([4]; application rate 320 g/ha) was 100%, the “Polygonum convolvulus” value ([4]; application rate 1280 g/ha) was 100% and the “herbicidal activity on Echinochloa crus-galli (visual rating vs untreated controls)” value ([5]; application rate 320 g/ha) was 100%. For the same molecule, the “herbicidal activity on Echinochloa crus-galli (visual rating vs untreated controls)” value ([5]; application rate 1280 g/ha) was 100%, the “Ipomoea purpurea, herbicidal activity” value ([6]; application rate 320 g/ha) was 100% and the “Ipomoea purpurea, herbicidal activity” value ([6]; application rate 1280 g/ha) was 100%. For the same molecule, the “herbicidal activity on Setaria viridis (visual rating vs untreated controls)” value ([7]; application rate 320 g/ha) was 100%, the “herbicidal activity on Setaria viridis (visual rating vs untreated controls)” value ([7]; application rate 1280 g/ha) was 100% and the “Stellaria media, herbicidal activity” value ([8]; application rate 320 g/ha) was 100%. For the same molecule, the “Stellaria media, herbicidal activity” value ([8]; application rate 1280 g/ha) was 100%, the “herbicidal activity on Veronica persica (visual rating vs untreated controls)” value [9] was 100% and the “Hordeum murinum, herbicidal activity” value [10] was 100%. The “Matricaria inodora, herbicidal activity” value ([11]; application rate 320 g/ha) was 100%, the “Matricaria inodora, herbicidal activity” value ([11]; application rate 1280 g/ha) was 100% and the “Viola tricolor, herbicidal activity” value ([12]; application rate 320 g/ha) was 100%. The “Viola tricolor, herbicidal activity” value ([12]; application rate 1280 g/ha) was 100%, the “herbicidal activity on Abutilon theophrasti (visual rating vs untreated controls)” value ([13]; application rate 320 g/ha) was 100% and the “herbicidal activity on Abutilon theophrasti (visual rating vs untreated controls)” value ([13]; application rate 1280 g/ha) was 100%. The “Avena fatua, herbicidal activity” value ([14]; application rate 320 g/ha) was 90%, the “Avena fatua, herbicidal activity” value ([14]; application rate 1280 g/ha) was 100% and the “Alopecurus myosuroides, herbicidal activity” value ([15]; application rate 320 g/ha) was 90%. For the same molecule, the “Alopecurus myosuroides, herbicidal activity” value ([15]; application rate 1280 g/ha) was 100%, the “Amaranthus retroflexus, herbicidal activity” value ([16]; application rate 320 g/ha) was 100% and the “Amaranthus retroflexus, herbicidal activity” value ([16]; application rate 1280 g/ha) was 100%. The “Polygonum convolvulus” value ([17]; application rate 320 g/ha) was 100%, the “Polygonum convolvulus” value ([17]; application rate 1280 g/ha) was 100% and the “Echinochloa crus-galli, herbicidal activity” value [18] was 100%. The “Ipomoea purpurea, herbicidal activity” value [19] was 100%, the “Setaria viridis, herbicidal activity” value ([20]; application rate 320 g/ha) was 100% and the “Setaria viridis, herbicidal activity” value ([20]; application rate 1280 g/ha) was 100%. For the same molecule, the “Stellaria media, herbicidal activity” value ([21]; application rate 320 g/ha) was 100%, the “Stellaria media, herbicidal activity” value ([21]; application rate 1280 g/ha) was 100% and the “Lolium rigidum, herbicidal activity” value [22] was 100%. The “Veronica persica, herbicidal activity” value [23] was 100%, the “Hordeum murinum, herbicidal activity” value ([24]; application rate 320 g/ha) was 90% and the “Hordeum murinum, herbicidal activity” value ([24]; application rate 1280 g/ha) was 100%. For the same molecule, the “Matricaria inodora, herbicidal activity” value ([25]; application rate 320 g/ha) was 100%, the “Matricaria inodora, herbicidal activity” value ([25]; application rate 1280 g/ha) was 100% and the “Viola tricolor, herbicidal activity” value ([26]; application rate 320 g/ha) was 100%. The “Viola tricolor, herbicidal activity” value ([26]; application rate 1280 g/ha) was 100%, the “Abutilon theophrasti, herbicidal activity” value ([27]; application rate 320 g/ha) was 100% and the “Abutilon theophrasti, herbicidal activity” value ([27]; application rate 1280 g/ha) was 100%.

In the case of `CCC(=O)OC1C(C)=CC(=O)N1c1cc(C(C)(C)C)on1` (stereo not drawn) [I.5-162], the “Avena fatua, herbicidal activity” value ([1]; application rate 1280 g/ha) is reported as 100%, the “herbicidal activity on Alopecurus myosuroides (visual rating vs untreated controls)” value ([2]; application rate 320 g/ha) is reported as 90% and the “herbicidal activity on Alopecurus myosuroides (visual rating vs untreated controls)” value ([2]; application rate 1280 g/ha) is reported as 100%. The “herbicidal activity on Amaranthus retroflexus (visual rating vs untreated controls)” value ([3]; application rate 1280 g/ha) was 100%, the “Polygonum convolvulus” value ([4]; application rate 320 g/ha) was 100% and the “Polygonum convolvulus” value ([4]; application rate 1280 g/ha) was 100%. The “herbicidal activity on Echinochloa crus-galli (visual rating vs untreated controls)” value ([5]; application rate 1280 g/ha) was 100%, the “Ipomoea purpurea, herbicidal activity” value ([6]; application rate 1280 g/ha) was 90% and the “herbicidal activity on Setaria viridis (visual rating vs untreated controls)” value ([7]; application rate 320 g/ha) was 100%. For the same molecule, the “herbicidal activity on Setaria viridis (visual rating vs untreated controls)” value ([7]; application rate 1280 g/ha) was 100%, the “Stellaria media, herbicidal activity” value ([8]; application rate 320 g/ha) was 100% and the “Stellaria media, herbicidal activity” value ([8]; application rate 1280 g/ha) was 100%. The “herbicidal activity on Veronica persica (visual rating vs untreated controls)” value [9] was 100%, the “Hordeum murinum, herbicidal activity” value [10] was 100% and the “Matricaria inodora, herbicidal activity” value ([11]; application rate 1280 g/ha) was 100%. The “Viola tricolor, herbicidal activity” value ([12]; application rate 320 g/ha) was 100%, the “Viola tricolor, herbicidal activity” value ([12]; application rate 1280 g/ha) was 100% and the “herbicidal activity on Abutilon theophrasti (visual rating vs untreated controls)” value ([13]; application rate 320 g/ha) was 100%. For the same molecule, the “herbicidal activity on Abutilon theophrasti (visual rating vs untreated controls)” value ([13]; application rate 1280 g/ha) was 100%, the “Avena fatua, herbicidal activity” value ([14]; application rate 320 g/ha) was 90% and the “Avena fatua, herbicidal activity” value ([14]; application rate 1280 g/ha) was 90%. The “Alopecurus myosuroides, herbicidal activity” value ([15]; application rate 320 g/ha) was 90%, the “Alopecurus myosuroides, herbicidal activity” value ([15]; application rate 1280 g/ha) was 90% and the “Amaranthus retroflexus, herbicidal activity” value ([16]; application rate 320 g/ha) was 100%. For the same molecule, the “Amaranthus retroflexus, herbicidal activity” value ([16]; application rate 1280 g/ha) was 100%, the “Polygonum convolvulus” value ([17]; application rate 320 g/ha) was 100% and the “Polygonum convolvulus” value ([17]; application rate 1280 g/ha) was 100%. For the same molecule, the “Echinochloa crus-galli, herbicidal activity” value [18] was 100%, the “Ipomoea purpurea, herbicidal activity” value [19] was 90% and the “Setaria viridis, herbicidal activity” value ([20]; application rate 320 g/ha) was 100%. The “Setaria viridis, herbicidal activity” value ([20]; application rate 1280 g/ha) was 100%, the “Stellaria media, herbicidal activity” value ([21]; application rate 320 g/ha) was 100% and the “Stellaria media, herbicidal activity” value ([21]; application rate 1280 g/ha) was 100%. For the same molecule, the “Lolium rigidum, herbicidal activity” value [22] was 90%, the “Veronica persica, herbicidal activity” value [23] was 100% and the “Hordeum murinum, herbicidal activity” value ([24]; application rate 1280 g/ha) was 100%. The “Matricaria inodora, herbicidal activity” value ([25]; application rate 320 g/ha) was 100%, the “Matricaria inodora, herbicidal activity” value ([25]; application rate 1280 g/ha) was 100% and the “Viola tricolor, herbicidal activity” value ([26]; application rate 320 g/ha) was 100%. For the same molecule, the “Viola tricolor, herbicidal activity” value ([26]; application rate 1280 g/ha) was 100%, the “Abutilon theophrasti, herbicidal activity” value ([27]; application rate 320 g/ha) was 100% and the “Abutilon theophrasti, herbicidal activity” value ([27]; application rate 1280 g/ha) was 100%.
